Test results published in patent US20080260857A1, “Substance and Method for Treating Neoplasms” (priority 2005, published 2008).

System: myeloma NS/0 cells
Experiment: Myeloma NS/0 tumor in mice
Type: in vivo, DBA/BALB(F1) mice
Conditions: Table 3; i.p. 0.5 ml once a day for 5 days from day 3; Succinate 0.1 mg/mouse, IFN 10^5 IU/mouse, rubomicin 0.016 mg/mouse, etoposide 0.03 mg/mouse; day 21; light water 99.90%; mean ±SD (n=5)
Method: Procedure. DBA/BALB(F1) mice were injected i.p. with 3×10^6 myeloma NS/0 cells to induces tumor. Myeloma NS/O-bearing mice were treated for 5 days since the third day of tumor implantation singly a day with i.p. injection of 0.5 ml saline made on the control water or 0.5 ml saline made on light water. Tumor masses and percent of mitotic cells in bone marrow were measured on day 21. Data are presented in Table 2 as tumor mass mean ±SD (n=5).
Materials and tumor implantation procedure were as described in example 3. Interferon-alpha2b, rubomicin, and etoposide were used as typical anti-neoplasm agents.
Myeloma NS/O-bearing mice were treated for 5 days since the third day singly a day with i.p. injection of 0.5 ml saline made on the water (control), 0.5 ml solution of 0.1 mg/mouse disodium succinate hexahydrate (Succinate) made on the control water, 0.5 ml solution of 10^5 IU/mouse interferon-alpha2b (IFN) made on the control water, 0.5 ml solution of 0.016 mg/mouse rubomicin made on the control water, 0.5 ml solution of 0.03 mg/mouse etoposide made on the control water; 0.5 ml saline made on light water, or 0.5 ml solution of 0.1 mg/mouse disodium succinate hexahydrate (Succinate) made on the light water, and 0.5 ml solution of 10^5 IU/mouse interferon-alpha2b (IFN) made on the light water, 0.5 ml solution of 0.016 mg/mouse rubomicin made on the light water, 0.5 ml solution of 0.03 mg/mouse etoposide made on the light water. Tumor masses were measured on day 21. Data are presented in Table 3 as tumor mass mean ±SD (n=5).

| Compound | Tumor Mass |
| --- | --- |
| O.O.O.O.O.O.O=C([O-])CCC(=O)[O-].[Na+].[Na+] [Control water + Succinate, disodium succinate hexahydrate] | 1780 ± 220 mg/mouse |
| COc1cc([C@@H]2c3cc4c(cc3[C@@H](O[C@@H]3O[C@@H]5CO[C@@H](C)O[C@H]5[C@H](O)[C@H]3O)[C@H]3COC(=O)[C@H]23)OCO4)cc(OC)c1O [Control water + etoposide, etoposide] | 1050 ± 120 mg/mouse |
| interferon-alpha2b [Control water + IFN] | 1460 ± 180 mg/mouse |
| rubomicin [Control water + rubomicin] | 1270 ± 150 mg/mouse |
